These results are taken from patent US20170314205A1, “Microorganism Control System and Method of Using the Same” (Ecolab USA Inc., priority 2014, published 2017).

The series in a line: Effect of acid addition on pH and available chlorine of urea-stabilized halogen-containing bactericide. The settings on record: for Solution pH / Available chlorine: final 30 ml; for Available chlorine: blank 2550. The class given is physicochemical. As for the experimental part: Then, 5 beakers were provided and separately added with 1 ml of the prepared urea-stabilized halogen-containing bactericide. After that, 29 ml of water was added to the first beaker for dilution (blank control), while the other 4 beakers were separately added with 20% sulfuric acid (0.5 ml or 1.0 ml) or 20% citric acid (1.0 ml or 2.0 ml), and added with water to reach a final volume of 30 ml. Finally, pH values and available chlorine contents (ppm) of solutions in the 5 beakers were measured.
Further, 10% aminosulfonic acid (which was used to replace sulfuric acid or citric acid, which dosage was 1.1 ml or 1.24 ml) was used to repeat the above experiments. […] In addition, after aminosulfonic acid was added, pH values and available chlorine contents (ppm) in solutions were measured, and after standing for 40 min, 120 min, and 240 min, available chlorine contents (ppm) of solutions were measured again. […]

Setting [1] is: acid volume 1.0 ml to 1 ml urea-stabilized bactericide (12.5% hypochlorite).
The mark [2] stands for this setting: acid volume 2.0 ml to 1 ml urea-stabilized bactericide (12.5% hypochlorite).
Where [3] appears, read: acid volume 0.5 ml to 1 ml urea-stabilized bactericide (12.5% hypochlorite).

Consider `O=C(O)CC(O)(CC(=O)O)C(=O)O` [20% citric acid, citric acid, reference compound], for which, under setting [1], the “Solution pH” value is 7.75 and the Available chlorine amounted to 1250 ppm. For the same compound, under setting [2], the “Solution pH” value worked out at 3.65 and the Available chlorine was 725 ppm.

Regarding `O=S(=O)(O)O` [20% sulfuric acid, sulfuric acid, reference compound], the “Solution pH” value runs as follows: under setting [3], 7.35; under setting [1], 2.15. In addition, the Available chlorine by setting is: under setting [3], 750 ppm; under setting [1], 455 ppm.

With `NS(=O)(=O)O` [Aminosulfonic acid, aminosulfonic acid], the “Solution pH after mixing” value (10% acid 1.1 ml to 1 ml urea-stabilized bactericide (8.5% hypochlorite)) is given as 8.46 and the “Solution pH after mixing” value (10% acid 1.24 ml to 1 ml urea-stabilized bactericide (8.5% hypochlorite)) is 5.96. For the same compound, the “Available chlorine after mixing” value runs as follows: (10% acid 1.1 ml, 0 min) 1275 ppm; (10% acid 1.1 ml, 40 min) 1275 ppm; (10% acid 1.1 ml, 120 min) 1325 ppm; (10% acid 1.1 ml, 240 min) 1400 ppm; (10% acid 1.24 ml, 0 min) 1300 ppm; (10% acid 1.24 ml, 40 min) 1325 ppm. Moreover, the “Available chlorine after mixing” value runs as follows: (10% acid 1.24 ml, 120 min) 1475 ppm; (10% acid 1.24 ml, 240 min) 1250 ppm. Further, the “Time for which available chlorine content of solution is maintained” value (urea-stabilized bactericide with pH regulated by aminosulfonic acid) is given as “at least 240 min”.
